Laboratory results taken from the NIST ThermoML archive (doi:10.1021/je300945r).

F/C=C/C(F)(F)F [trans-1,3,3,3-tetrafluoropropene]
Details	mass density [kg/m3]
302.78 K, 433.9 kPa, Gas, isochoric method	22.222
303.13 K, 802 kPa, Liquid, Vibrating tube method	1145.9
303.13 K, 1676 kPa, Liquid, Vibrating tube method	1151.1
303.13 K, 4747 kPa, Liquid, Vibrating tube method	1167.3
303.13 K, 7769 kPa, Liquid, Vibrating tube method	1181.3
303.13 K, 8772 kPa, Liquid, Vibrating tube method	1185.8
303.14 K, 2678 kPa, Liquid, Vibrating tube method	1156.8
303.14 K, 3716 kPa, Liquid, Vibrating tube method	1162.3
303.14 K, 5757 kPa, Liquid, Vibrating tube method	1172.2
303.14 K, 6764 kPa, Liquid, Vibrating tube method	1176.9
303.14 K, 9773 kPa, Liquid, Vibrating tube method	1190
303.14 K, 10775 kPa, Liquid, Vibrating tube method	1194.1
303.14 K, 11778 kPa, Liquid, Vibrating tube method	1197.9
303.14 K, 12794 kPa, Liquid, Vibrating tube method	1201.7
303.14 K, 13809 kPa, Liquid, Vibrating tube method	1205.3
303.14 K, 14819 kPa, Liquid, Vibrating tube method	1209.1
303.14 K, 15824 kPa, Liquid, Vibrating tube method	1212.5
303.14 K, 16838 kPa, Liquid, Vibrating tube method	1216
303.14 K, 17845 kPa, Liquid, Vibrating tube method	1219.4
303.14 K, 18856 kPa, Liquid, Vibrating tube method	1222.6
303.14 K, 19875 kPa, Liquid, Vibrating tube method	1225.8
303.14 K, 20888 kPa, Liquid, Vibrating tube method	1228.8
303.14 K, 21899 kPa, Liquid, Vibrating tube method	1232
303.14 K, 22909 kPa, Liquid, Vibrating tube method	1234.9
303.14 K, 23916 kPa, Liquid, Vibrating tube method	1238
303.14 K, 24920 kPa, Liquid, Vibrating tube method	1240.8
303.14 K, 25928 kPa, Liquid, Vibrating tube method	1243.5
303.14 K, 26942 kPa, Liquid, Vibrating tube method	1246.4
303.14 K, 27943 kPa, Liquid, Vibrating tube method	1249.1
303.14 K, 28955 kPa, Liquid, Vibrating tube method	1251.6
303.14 K, 29958 kPa, Liquid, Vibrating tube method	1254.5
303.14 K, 30966 kPa, Liquid, Vibrating tube method	1256.7
303.15 K, 31972 kPa, Liquid, Vibrating tube method	1259.5
303.15 K, 32984 kPa, Liquid, Vibrating tube method	1262
303.15 K, 33993 kPa, Liquid, Vibrating tube method	1264.4
312.59 K, 574.7 kPa, Gas, isochoric method	28.571
312.6 K, 574.7 kPa, Gas, isochoric method	28.571
312.61 K, 397.1 kPa, Gas, isochoric method	19.231
312.61 K, 397.2 kPa, Gas, isochoric method	19.231
312.72 K, 168.6 kPa, Gas, isochoric method	7.634
312.76 K, 451.9 kPa, Gas, isochoric method	21.739
312.76 K, 452 kPa, Gas, isochoric method	21.739
312.8 K, 74.3 kPa, Gas, isochoric method	3.311
312.84 K, 268.5 kPa, Gas, isochoric method	12.5
313.13 K, 630.3 kPa, Gas, isochoric method	32.258
313.13 K, 630.4 kPa, Gas, isochoric method	32.258
313.14 K, 775 kPa, Liquid, Vibrating tube method	1109.9
313.14 K, 1656 kPa, Liquid, Vibrating tube method	1116.2
313.14 K, 2657 kPa, Liquid, Vibrating tube method	1122.9
313.14 K, 3683 kPa, Liquid, Vibrating tube method	1129.4
313.14 K, 5739 kPa, Liquid, Vibrating tube method	1141.4
313.14 K, 6749 kPa, Liquid, Vibrating tube method	1146.8
313.14 K, 7763 kPa, Liquid, Vibrating tube method	1152.1
313.14 K, 8784 kPa, Liquid, Vibrating tube method	1157.1
313.14 K, 9798 kPa, Liquid, Vibrating tube method	1161.9
313.14 K, 10800 kPa, Liquid, Vibrating tube method	1166.5
313.14 K, 11816 kPa, Liquid, Vibrating tube method	1170.9
313.14 K, 12819 kPa, Liquid, Vibrating tube method	1175.2
313.14 K, 13831 kPa, Liquid, Vibrating tube method	1179.3
313.14 K, 14845 kPa, Liquid, Vibrating tube method	1183.4
313.14 K, 15848 kPa, Liquid, Vibrating tube method	1187.2
313.14 K, 16855 kPa, Liquid, Vibrating tube method	1191.1
313.14 K, 18874 kPa, Liquid, Vibrating tube method	1198.3
313.14 K, 19890 kPa, Liquid, Vibrating tube method	1201.9
313.14 K, 20909 kPa, Liquid, Vibrating tube method	1205.3
313.14 K, 21923 kPa, Liquid, Vibrating tube method	1208.7
313.14 K, 22937 kPa, Liquid, Vibrating tube method	1212
313.14 K, 23947 kPa, Liquid, Vibrating tube method	1215.2
313.14 K, 25962 kPa, Liquid, Vibrating tube method	1221.3
313.14 K, 26971 kPa, Liquid, Vibrating tube method	1224.3
313.14 K, 28984 kPa, Liquid, Vibrating tube method	1230.1
313.15 K, 4723 kPa, Liquid, Vibrating tube method	1135.7
313.15 K, 17865 kPa, Liquid, Vibrating tube method	1194.7
313.15 K, 24948 kPa, Liquid, Vibrating tube method	1218.2
313.15 K, 27973 kPa, Liquid, Vibrating tube method	1227.2
313.15 K, 30002 kPa, Liquid, Vibrating tube method	1232.9
313.15 K, 31006 kPa, Liquid, Vibrating tube method	1235.7
313.15 K, 32010 kPa, Liquid, Vibrating tube method	1238.4
313.15 K, 33010 kPa, Liquid, Vibrating tube method	1241
313.15 K, 34013 kPa, Liquid, Vibrating tube method	1243.6
323.1 K, 76.8 kPa, Gas, isochoric method	3.311
323.1 K, 278.4 kPa, Gas, isochoric method	12.346
323.1 K, 470.5 kPa, Gas, isochoric method	21.739
323.11 K, 174.6 kPa, Gas, isochoric method	7.634
323.11 K, 413.3 kPa, Gas, isochoric method	19.231
323.11 K, 413.4 kPa, Gas, isochoric method	19.231
323.11 K, 658.4 kPa, Gas, isochoric method	32.258
323.12 K, 836.8 kPa, Gas, isochoric method	43.478
323.14 K, 1009 kPa, Liquid, Vibrating tube method	1071.8
323.14 K, 1595 kPa, Liquid, Vibrating tube method	1077.1
323.14 K, 2609 kPa, Liquid, Vibrating tube method	1085.6
323.14 K, 3638 kPa, Liquid, Vibrating tube method	1093.6
323.14 K, 4686 kPa, Liquid, Vibrating tube method	1101.1
323.14 K, 5705 kPa, Liquid, Vibrating tube method	1108
323.14 K, 6730 kPa, Liquid, Vibrating tube method	1114.5
323.14 K, 7748 kPa, Liquid, Vibrating tube method	1120.7
